Consider 5 cell lines from the supplement of paper PMC10307832.

What all share (experiment): relative viability (nuclei count vs DMSO), 5 days (fraction); higher = more cells survive
Compound in the assay “GSK-J4 + Trametinib”: CCOC(=O)CCNc1cc(N2CCc3ccccc3CC2)nc(-c2ccccn2)n1 [GSK-J4] + CC(=O)Nc1cccc(-n2c(=O)n(C3CC3)c(=O)c3c(Nc4ccc(I)cc4F)n(C)c(=O)c(C)c32)c1 [Trametinib] (partner 0.02 µM)
The essentials: (§1)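 Five library-drug doses in √10 steps were combined with a fixed anchor-drug dose, or a single drug was given alone, by pin tool to lung cancer cell lines in 1536-well plates the day after seeding. Nuclei were stained and counted after 5 days. Relative viability is the nuclei count in treated wells over that in vehicle wells, taken as the median of duplicate plates.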

Compound in the assay “GSK-J4 + Palbociclib”: CCOC(=O)CCNc1cc(N2CCc3ccccc3CC2)nc(-c2ccccn2)n1 [GSK-J4] + CC(=O)c1c(C)c2cnc(Nc3ccc(N4CCNCC4)cn3)nc2n(C2CCCC2)c1=O [Palbociclib] (partner 0.5 µM)
The essentials: as §1

Compound in the assay “GSK-J4 + Navitoclax”: CCOC(=O)CCNc1cc(N2CCc3ccccc3CC2)nc(-c2ccccn2)n1 [GSK-J4] + CC1(C)CCC(c2ccc(Cl)cc2)=C(CN2CCN(c3ccc(C(=O)NS(=O)(=O)c4ccc(N[C@H](CCN5CCOCC5)CSc5ccccc5)c(S(=O)(=O)C(F)(F)F)c4)cc3)CC2)C1 [Navitoclax] (partner 0.5 µM)
A digest of the protocol:
as §1

Compound in the assay “GSK-J4 + Linsitinib”: CCOC(=O)CCNc1cc(N2CCc3ccccc3CC2)nc(-c2ccccn2)n1 [GSK-J4] + C[C@]1(O)C[C@@H](c2nc(-c3ccc4ccc(-c5ccccc5)nc4c3)c3c(N)nccn32)C1 [Linsitinib] (partner 1 µM)
A digest of the protocol: as §1

Turning to RERF-LC-KJ, the relative viability was found to be 0.85 in the assay with GSK-J4 + Trametinib (first compound 0.5 µM); 0.845 with GSK-J4 + Trametinib (first compound 1.581 µM); 0.931 with GSK-J4 + Trametinib (first compound 5 µM); 0.708 with GSK-J4 + Trametinib (first compound 15.81 µM); 0.66 with GSK-J4 + Trametinib (first compound 50 µM); 1.07 with GSK-J4 + Palbociclib (first compound 0.5 µM). Besides, the relative viability stood at 0.954 with GSK-J4 + Palbociclib (first compound 1.581 µM); 1.13 with GSK-J4 + Palbociclib (first compound 5 µM); 1.04 with GSK-J4 + Palbociclib (first compound 15.81 µM); 0.728 with GSK-J4 + Palbociclib (first compound 50 µM); 0.756 with GSK-J4 + Navitoclax (first compound 0.5 µM); 1.01 with GSK-J4 + Navitoclax (first compound 1.581 µM). Moreover, the relative viability stood at 0.881 in the assay with GSK-J4 + Navitoclax (first compound 5 µM); 0.795 with GSK-J4 + Navitoclax (first compound 15.81 µM); 0.763 with GSK-J4 + Navitoclax (first compound 50 µM); 0.93 in the assay with GSK-J4 + Linsitinib (first compound 0.5 µM); 0.818 with GSK-J4 + Linsitinib (first compound 1.581 µM); 0.852 in the assay with GSK-J4 + Linsitinib (first compound 5 µM). Moreover, the results for the relative viability in the assay with GSK-J4 + Linsitinib (first compound 15.81 µM) and with GSK-J4 + Linsitinib (first compound 50 µM) were 0.856 and 0.777, respectively.
In the case of SK-LU-1, the relative viability in the assay with GSK-J4 + Trametinib (first compound 0.5 µM) came to 0.468; with GSK-J4 + Trametinib (first compound 1.581 µM) it was 0.499; in the assay with GSK-J4 + Trametinib (first compound 5 µM), 0.385; with GSK-J4 + Trametinib (first compound 15.81 µM), 0.43; in the assay with GSK-J4 + Trametinib (first compound 50 µM), 0.383; with GSK-J4 + Palbociclib (first compound 0.5 µM) it was 0.362. Also, the relative viability with GSK-J4 + Palbociclib (first compound 1.581 µM) worked out at 0.421; in the assay with GSK-J4 + Palbociclib (first compound 5 µM), 0.346; with GSK-J4 + Palbociclib (first compound 15.81 µM), 0.336; with GSK-J4 + Palbociclib (first compound 50 µM), 0.295; with GSK-J4 + Navitoclax (first compound 0.5 µM), 0.733; in the assay with GSK-J4 + Navitoclax (first compound 1.581 µM) it was 0.832. The relative viability is 0.682 in the assay with GSK-J4 + Navitoclax (first compound 5 µM); 0.596 with GSK-J4 + Navitoclax (first compound 15.81 µM); 0.537 with GSK-J4 + Navitoclax (first compound 50 µM); 1.08 in the assay with GSK-J4 + Linsitinib (first compound 0.5 µM); 1.18 with GSK-J4 + Linsitinib (first compound 1.581 µM); 0.716 in the assay with GSK-J4 + Linsitinib (first compound 5 µM). Moreover, the relative viability with GSK-J4 + Linsitinib (first compound 15.81 µM) worked out at 0.911; with GSK-J4 + Linsitinib (first compound 50 µM) it was 0.777.
Take SK-MES-1: the relative viability with GSK-J4 + Trametinib (first compound 0.5 µM) was 0.56; with GSK-J4 + Trametinib (first compound 1.581 µM) it was 0.582; in the assay with GSK-J4 + Trametinib (first compound 5 µM), 0.497; with GSK-J4 + Trametinib (first compound 15.81 µM), 0.489; with GSK-J4 + Trametinib (first compound 50 µM), 0.478; with GSK-J4 + Palbociclib (first compound 0.5 µM), 0.314. Further, the relative viability in the assay with GSK-J4 + Palbociclib (first compound 1.581 µM) amounted to 0.29; with GSK-J4 + Palbociclib (first compound 5 µM), 0.319; with GSK-J4 + Palbociclib (first compound 15.81 µM), 0.283; with GSK-J4 + Palbociclib (first compound 50 µM) it was 0.313; with GSK-J4 + Navitoclax (first compound 0.5 µM), 1.13; with GSK-J4 + Navitoclax (first compound 1.581 µM), 1.03. Further, the relative viability with GSK-J4 + Navitoclax (first compound 5 µM) came out at 1.25; in the assay with GSK-J4 + Navitoclax (first compound 15.81 µM) it was 1.01; with GSK-J4 + Navitoclax (first compound 50 µM), 0.857; with GSK-J4 + Linsitinib (first compound 0.5 µM) it was 0.994; in the assay with GSK-J4 + Linsitinib (first compound 1.581 µM), 0.975; with GSK-J4 + Linsitinib (first compound 5 µM), 0.827. Also, the values for the relative viability with GSK-J4 + Linsitinib (first compound 15.81 µM) and in the assay with GSK-J4 + Linsitinib (first compound 50 µM) were 0.993 and 0.994, respectively.
Regarding SW 1573, the relative viability with GSK-J4 + Trametinib (first compound 0.5 µM) was 0.577; with GSK-J4 + Trametinib (first compound 1.581 µM), 0.474; with GSK-J4 + Trametinib (first compound 5 µM) it was 0.651; with GSK-J4 + Trametinib (first compound 15.81 µM), 0.599; with GSK-J4 + Trametinib (first compound 50 µM), 0.381; with GSK-J4 + Palbociclib (first compound 0.5 µM) it was 0.38. Moreover, the relative viability with GSK-J4 + Palbociclib (first compound 1.581 µM) worked out at 0.336; with GSK-J4 + Palbociclib (first compound 5 µM), 0.347; with GSK-J4 + Palbociclib (first compound 15.81 µM) it was 0.382; with GSK-J4 + Palbociclib (first compound 50 µM), 0.237; in the assay with GSK-J4 + Navitoclax (first compound 0.5 µM) it was 0.941; in the assay with GSK-J4 + Navitoclax (first compound 1.581 µM), 1.1. Also, the relative viability in the assay with GSK-J4 + Navitoclax (first compound 5 µM) amounted to 0.951; with GSK-J4 + Navitoclax (first compound 15.81 µM), 0.823; with GSK-J4 + Navitoclax (first compound 50 µM), 0.705; with GSK-J4 + Linsitinib (first compound 0.5 µM), 0.81; with GSK-J4 + Linsitinib (first compound 1.581 µM), 0.755; with GSK-J4 + Linsitinib (first compound 5 µM) it was 0.802. In addition, the relative viability stood at 0.703 with GSK-J4 + Linsitinib (first compound 15.81 µM) and 0.595 with GSK-J4 + Linsitinib (first compound 50 µM).
With UMC-11, the relative viability in the assay with GSK-J4 + Trametinib (first compound 0.5 µM) turned out to be 0.666; with GSK-J4 + Trametinib (first compound 1.581 µM), 0.336; with GSK-J4 + Trametinib (first compound 5 µM), 0.255; in the assay with GSK-J4 + Trametinib (first compound 15.81 µM) it was 0.834; with GSK-J4 + Trametinib (first compound 50 µM), 0.521; with GSK-J4 + Palbociclib (first compound 0.5 µM), 0.367. In addition, the relative viability with GSK-J4 + Palbociclib (first compound 1.581 µM) stood at 0.288; in the assay with GSK-J4 + Palbociclib (first compound 15.81 µM), 0.35; in the assay with GSK-J4 + Palbociclib (first compound 50 µM), 0.241; in the assay with GSK-J4 + Navitoclax (first compound 0.5 µM), 0.332; in the assay with GSK-J4 + Navitoclax (first compound 1.581 µM), 0.233; with GSK-J4 + Navitoclax (first compound 5 µM), 0.341. Besides, the relative viability in the assay with GSK-J4 + Navitoclax (first compound 15.81 µM) is 0.305; with GSK-J4 + Navitoclax (first compound 50 µM), 0.179; with GSK-J4 + Linsitinib (first compound 0.5 µM), 0.97; with GSK-J4 + Linsitinib (first compound 1.581 µM) it was 0.967; with GSK-J4 + Linsitinib (first compound 5 µM), 1.02; with GSK-J4 + Linsitinib (first compound 15.81 µM) it was 0.983. Besides, the relative viability with GSK-J4 + Linsitinib (first compound 50 µM) is 0.572.
